From patent US20190388495A1, “Pharmaceutical Composition for Preventing or Treating Hypersensitivity Immune Disease, and Method for Producing Same” (QURATIS INC., priority 2017, published 2019)

Test system: plasmacytoid dendritic cells
Assay: IL-10 secretion from plasmacytoid dendritic cells induced with various toll-like receptor agonists, ELISA (Example 3)
Format: cell-based, C57BL/6 mice
Conditions: stimulated with ODN1826 1 μg/ml, 24 hours; vs non-treatment
From the text: In order to check the immune tolerance inducing effect of various toll-like receptor agonists, differentiation into the plasmacytoid dendritic cells was induced by the same method as in Example 1. Ligands listed in Table 2 were used as the toll-like receptor agonist. From the cells obtained after 8 days of culture, the plasmacytoid dendritic cells were separated at a purity equal to or greater than 85% by a plasmacytoid dendritic cell separation kit (Miltenyi Biotec, Auburn, Calif.) and a magnetic cell sorting system (Vario MACS: Miltenyi Biotec, Auburn, Calif.). The separated cells (5×10^5 cells/ml) were inoculated into a 48 well plate. ODN1826 (1 μg/ml) was applied thereto and the cells were cultured for 24 hours. Then, supernatant was separated. The secretion pattern of the immunosuppressive cytokine IL-10 was then checked by ELISA (enzyme linked immunosorbent assay).

Row | Compound | expression level of IL-10 from plasmacytoid dendritic cells differentiated via treatment with the agonist
1 | CC(C)Cn1cnc2c(N)nc3ccccc3c21 [TLR7 agonist, Imiquimod] | significantly increased
2 | LPS [TLR4 agonist] | significantly increased
3 | Pam3 [TLR2 agonist] | significantly increased
